Solubility data for 61 compounds are collected here from patent publication US9868742B2, “Substituted imidazo[1,2-b]pyridazines, substituted imidazo[1,5-b] pyridazines, related compounds, and their use in the treatment of medical disorders” (Lysosomal Therapeutics Inc., priority 2016, dated 2018).

In brackets after ≈: the same amount, converted by molar mass.

A short description of the series: Compound solubility in water. The class given is physicochemical.
In turn, `CCCCCO[C@H]1CC[C@H](NC(=O)c2cnc3c(C)cc(C)nn23)CC1` yielded a solubility of 3.9 µg/mL (≈ 10.9 µM). In the case of `CCC(NC(=O)c1cnc2cc(C)c(Cl)nn12)c1ccccc1` (stereo not shown), the concentration in solution (solubility) was 14.6 µg/mL (≈ 44.5 µM). Then `Cc1cc(-c2ccc(F)cc2C#N)nn2c(C(=O)N[C@@H](C)C3CC3)cnc12`, with 2.6 µg/mL (≈ 7.15 µM); and `Cc1cc(C)c2ncc(C(=O)NC3(C)CCCc4ccccc43)n2n1` (stereo not shown), with 7.2 µg/mL (≈ 21.5 µM).

Regarding `Cc1cc(C)c2ncc(C(=O)NC3CCCc4ccccc43)n2n1` (stereo not shown), the concentration in solution (solubility) came to 8.8 µg/mL (≈ 27.5 µM). The value for `Cc1cc(-c2ccc(F)cc2)nn2c(C(=O)NC(C3CC3)C(F)(F)F)ncc12` (stereo not shown) was 0.2 µg/mL (≈ 0.51 µM); that for `Cc1cc(-c2cccc(F)c2)nn2c(C(=O)NC(C3CC3)C(F)(F)F)cnc12` (stereo not shown) was 0.03 µg/mL (≈ 0.0765 µM); that for `CCC(NC(=O)c1ncc2c(C)cc(C)nn12)c1ccccc1` (stereo not shown) was 29.6 µg/mL (≈ 96 µM).

As for `Cc1cc(-c2ccc(F)cc2)nn2c(C(=O)N[C@@H](C)C3CC3)nnc12`, the solubility was 1 µg/mL (≈ 2.95 µM).

The compound `Cc1cc(-c2ccccn2)nc2c(C(=O)NC(C3CC3)C(F)(F)F)nsc12` (stereo not shown) showed a solubility of 0.7 µg/mL (≈ 1.78 µM). The value for `Cc1cc(-c2ccc(F)cc2C#N)nn2c(C(=O)N[C@@H](C)C(F)(F)F)cnc12` was 1.9 µg/mL (≈ 4.86 µM); that for `Cc1cc(-c2ccc3ocnc3c2)nn2c(C(=O)N[C@@H](C)C(F)(F)F)cnc12` was 1.2 µg/mL (≈ 3.08 µM). Then `Cc1cc(-c2ccc(F)cc2)nn2c(C(=O)NC(C)(C)C3CC3)cnc12`, with 0.9 µg/mL (≈ 2.55 µM); and `Cc1cc(N2CCC(F)(F)C2)nn2c(C(=O)NC(C3CC3)C(F)(F)F)cnc12` (stereo not shown), with 8.2 µg/mL (≈ 20.3 µM); and `C#Cc1ccc(NC(=O)c2cnc3c(C)cc(C)nn23)cc1`, with 0.3 µg/mL (≈ 1.03 µM).

`Cc1cc(C#N)c(-c2cc(C)c3ncc(C(=O)N[C@@H](C)C(F)(F)F)n3n2)o1`: the solubility turned out to be 0.1 µg/mL (≈ 0.265 µM). Then `Cc1cc2ncc(C(=O)Nc3ccc4c(c3)CCC4)n2nc1Cl`, with 1.5 µg/mL (≈ 4.59 µM). Regarding `Cc1cc(-c2cccc(F)c2)nn2c(C(=O)N[C@H](C3CC3)C(F)(F)F)ncc12` [(R)—N-(1-Cyclopropyl-2,2,2-trifluoroethyl)-2-(3-fluorophenyl)-4-methylimidazo[1,5-b]pyridazine-7-carboxamide], the concentration in solution (solubility) came to 0.2 µg/mL (≈ 0.51 µM). For `Cc1cc(-c2cccc3ocnc23)nc2c(C(=O)NC(C3CC3)C(F)(F)F)nsc12` (stereo not shown), the concentration in solution (solubility) was 1.1 µg/mL (≈ 2.54 µM). `Cc1cc(-c2cccc(F)c2)nn2c(C(=O)NC(C)C(F)(F)F)ncc12` (stereo not shown) returned a solubility of 3 µg/mL (≈ 8.19 µM). The value for `Cc1cc(-c2ccc(F)cc2C#N)nn2c(C(=O)N[C@H](C)C3CC3)cnc12` was 2.3 µg/mL (≈ 6.33 µM); that for `Cc1cc(C)c2ncc(C(=O)Nc3ccc(-c4cocn4)cc3)n2n1` was 1.8 µg/mL (≈ 5.4 µM). The compound `Cc1cc(C)c2cnc(C(=O)NC3CCCc4ccccc43)n2n1` (stereo not shown) yielded a solubility of 38.4 µg/mL (≈ 120 µM). Take `Cc1cc(-c2cc(C)c3ncc(C(=O)N[C@H](C4CC4)C(F)(F)F)n3n2)sn1`: the concentration in solution (solubility) came to 3.6 µg/mL (≈ 9.1 µM). The value for `Cc1cc(C)c2cnc(C(=O)NC(C)(C)C3CC3)n2n1` was 24 µg/mL (≈ 88.1 µM). The value for `Cc1cc(-c2ccc(F)cc2C#N)nn2c(C(=O)NC(C3CC3)C(F)(F)F)cnc12` (stereo not shown) was 0.7 µg/mL (≈ 1.68 µM); that for `Cc1cc(-c2cccc(F)c2C#N)nn2c(C(=O)N[C@@H](C)C(F)(F)F)cnc12` [(S)-6-(2-Cyano-3-fluorophenyl)-8-methyl-N-(1,1,1-trifluoropropan-2-yl)imidazo[1,2-b]pyridazine-3-carboxamide] was 1.1 µg/mL (≈ 2.81 µM); that for `Cc1cc(-c2cccnc2)nc2c(C(=O)NC(C)C3CC3)csc12` (stereo not shown) was 1.4 µg/mL (≈ 4.15 µM). `Cc1cc(-c2ccc(F)o2)nn2c(C(=O)NC(C3CC3)C(F)(F)F)cnc12` (stereo not shown): the solubility worked out at 0.6 µg/mL (≈ 1.57 µM). The value for `Cc1cc(N2CCN(C(C)C)C2=O)nn2c(C(=O)NC(C3CC3)C(F)(F)F)cnc12` (stereo not shown) was 18.3 µg/mL (≈ 43.1 µM); that for `COc1cccc(-c2cc(C)c3ncc(C(=O)NC(C4CC4)C(F)(F)F)n3n2)n1` (stereo not shown) was 2.2 µg/mL (≈ 5.43 µM); that for `Cc1cc(C)c2ncc(C(=O)Nc3ccc4c(c3)CCC4)n2n1` was 0.9 µg/mL (≈ 2.94 µM).

In turn, `Cc1cc(-c2ccc(F)cc2C#N)nn2c(C(=O)N[C@@H](C3CC3)C(F)(F)F)cnc12` came in with a solubility of 1.2 µg/mL (≈ 2.88 µM). Then `Cc1cc(-c2cccc3ncoc23)nn2c(C(=O)NC(C3CC3)C(F)(F)F)cnc12` (stereo not shown), with 0.3 µg/mL (≈ 0.722 µM); and `Cc1cc(C)c2ncc(C(=O)NC(C)(C)C3CC3)n2n1`, with 27.3 µg/mL (≈ 100 µM). `Cc1cc(-c2ccc(F)cc2)nn2c(C(=O)N[C@@H](C)C3CC3)ncc12` showed a solubility of 6.9 µg/mL (≈ 20.4 µM). `Cc1cc(-c2cccc3ncoc23)nn2c(C(=O)NC(C)C(F)(F)F)cnc12` (stereo not shown) yielded a solubility of 4.4 µg/mL (≈ 11.3 µM). Compound `CCCCCO[C@H]1CC[C@H](NC(=O)c2cnc3ccc(Cl)nn23)CC1` had a solubility of 17 µg/mL (≈ 46.6 µM). Then `Cc1cc(C)c2cnc(C(=O)Nc3ccc(-c4cocn4)cc3)n2n1`, with 0.4 µg/mL (≈ 1.2 µM); and `CCCCCCOC1CCC(NC(=O)c2cnc3c(C)cc(Cl)nn23)CC1` (stereo not shown), with 3.1 µg/mL (≈ 7.89 µM).

`O=C(Nc1ccc2c(c1)CCC2)c1cnc2ccc(Cl)nn12` came in with a solubility of 0.7 µg/mL (≈ 2.24 µM). The value for `Cc1cc(-c2ccc(F)cc2C#N)nn2c(C(=O)N[C@H](C)C(F)(F)F)cnc12` was 1.9 µg/mL (≈ 4.86 µM); that for `Cc1cc(-c2cccc(F)c2)nn2c(C(=O)NC(C)C(F)(F)F)cnc12` (stereo not shown) was 1.9 µg/mL (≈ 5.19 µM).

Take `Cc1nc2cc(-c3cc(C)c4ncc(C(=O)NC(C)C(F)(F)F)n4n3)ccc2o1` (stereo not shown): the concentration in solution (solubility) came to 1.5 µg/mL (≈ 3.72 µM). The value for `Cc1cc(-c2ccc(F)cc2C#N)nn2c(C(=O)NC(C)C(F)(F)F)cnc12` (stereo not shown) was 3.9 µg/mL (≈ 9.97 µM); that for `COc1cccc(-c2cc(C)c3ncc(C(=O)NC(C4CC4)C4CC4)n3n2)c1` was 2.7 µg/mL (≈ 7.17 µM). The value for `Cc1cc(-c2ccc(F)cc2)nn2c(C(=O)N[C@@H](C)C3CC3)cnc12` was 6.5 µg/mL (≈ 19.2 µM); that for `Cc1cc(-c2ccccc2C#N)nn2c(C(=O)NC(C3CC3)C(F)(F)F)cnc12` (stereo not shown) was 0.1 µg/mL (≈ 0.25 µM); that for `Cc1cc(C)c2cnc(C(=O)Nc3ccc4c(c3)CCC4)n2n1` was 2.1 µg/mL (≈ 6.85 µM).

In turn, `Cc1cc(-c2cccc3ocnc23)nn2c(C(=O)NC(C3CC3)C(F)(F)F)cnc12` (stereo not shown) displayed a solubility of 1.6 µg/mL (≈ 3.85 µM). `Cc1cc(-c2cccc(Cl)n2)nn2c(C(=O)NC(C)C(F)(F)F)cnc12` (stereo not shown): the solubility was found to be 3.5 µg/mL (≈ 9.12 µM). The value for `Cc1cc(-c2cccc(F)c2)nn2c(C(=O)NC(C)(C)C3CC3)ncc12` was 8 µg/mL (≈ 22.7 µM); that for `Cc1cc(-c2ccc3ocnc3c2)nn2c(C(=O)N[C@@H](C3CC3)C(F)(F)F)cnc12` was 0.5 µg/mL (≈ 1.2 µM). Then `Cc1cc(-c2occc2C#N)nn2c(C(=O)NC(C3CC3)C(F)(F)F)cnc12` (stereo not shown), with 0.7 µg/mL (≈ 1.8 µM); and `Cc1cc(-c2ccc3ncn(C)c3c2)nn2c(C(=O)N[C@H](C3CC3)C(F)(F)F)cnc12` [(R)—N-(1-Cyclopropyl-2,2,2-trifluoroethyl)-8-methyl-6-(1-methyl-1H-benzo[d]imidazol-6-yl)imidazo[1,2-b]pyridazine-3-carboxamide], with 1 µg/mL (≈ 2.33 µM).

Compound `Cc1cc(-c2ccc3ocnc3c2)nn2c(C(=O)N[C@H](C)C(F)(F)F)cnc12` had a solubility of 1 µg/mL (≈ 2.57 µM). `C#CC(C)(C)NC(=O)c1cnc2c(C)cc(-c3ccns3)nn12` yielded a solubility of 17.2 µg/mL (≈ 52.9 µM).

With `O=C(NC1CCCc2ccccc21)c1cnc2ccc(Cl)nn12` (stereo not shown), the concentration in solution (solubility) came to 17.5 µg/mL (≈ 53.7 µM). `Cc1cc(Cl)nn2c(C(=O)Nc3ccc4c(c3)CCC4)cnc12`: the concentration in solution (solubility) was 0.3 µg/mL (≈ 0.918 µM). Take `Cc1cc(C)c2scc(C(=O)NC(C3CC3)C(F)(F)F)c2n1` (stereo not shown): the solubility was 0.1 µg/mL (≈ 0.305 µM). The value for `CCCCCCOC1CCC(NC(=O)c2cnc3cc(C)c(Cl)nn23)CC1` (stereo not shown) was 16.8 µg/mL (≈ 42.8 µM).

Broadly, the solubility is the dissolved amount per volume that the medium holds.
